Experiments:
[1] = tested on: phenformin intoxication; test: Phenformin intoxication and severe lactate acidemia in mice: survival time, serum lactate, serum pH; assay type: in vivo, CD-1 mice; conditions: doses of Table 4, vs G1 saline; for Serum lactate at 1 hour after phenformin intoxication: FIG. 14, combination vs single agent; for Serum pH value at 1 hour after phenformin intoxication: FIG. 15
Description: CD-1 mice (20-25 gram) were used. All mice were pre-treated according to the Table 4.
10 minutes after treatment, intoxication of severe lactate acidemia was induced by injecting phenformin chloride (concentration 20 mg/ml) at dose of 200 mg/kg intraperitoneally. At 1 hour after phenformin injection, serum lactate and pH were measured.

[2] = tested on: cardiac arrest rat model; test: Cardiac arrest rat model with CPR: mortality, brain death score, serum lactate and pH, organ ATP; assay type: in vivo; conditions: for Serum lactate: FIG. 2, 24 hours after ROSC or right before death, vs G1 saline, combination vs single agent; for Mortality at 24 hours after ROSC: rats, 7 min cardiac arrest, iv treatment 10 minutes after ROSC, doses of Table 1, n=8 each group
[3] = tested on: focal cerebral ischemia rat model; test: Focal cerebral ischemia rat model (3 h MCA occlusion, 21 h reperfusion): behavioral deficit, infarct size, serum lactate, brain ATP; assay type: in vivo; conditions: FIG. 10; 24 hours after ischemia; vs G1 saline; combination vs single agent
Description: 180-230 g CD rats were used. Ketamine/xylazine 30 mg/kg ip was given for anesthesia in each rat. A midline incision on the neck was made. The left common carotid artery, the external carotid artery (ECA) and the internal carotid artery (ICA) were exposed. The ECA was ligated and severed. Focal cerebral ischemia was produced by a 3.0 nylon suture that was advanced from the ECA to ICA to block the origin of left middle cerebral artery. The nylon suture was left in place to induce focal cerebral ischemia on left hemisphere supplied by middle cerebral artery. The ischemia lasted for 3 hours, the nylon suture was then removed to allow blood reperfusion for 21 hours.
This treatment time point is one hour before restoring blood flow (reperfusion).
At 24 hours after cerebral ischemia, each rat was evaluated for behavioral deficits. A score of 0-4 was used to assess the motor and behavioral changes. Score 0: No apparent deficits, Score 1: Contralateral forelimb flexion, Score 2: Decreased grip of the contralateral forelimb when the tail is pulled, Score 3: Spontaneous movement in all directions; contralateral circling only if pulled by tail and Score 4: Spontaneous contralateral circling.
At 24 hours after ischemia, blood samples were collected, serum lactate, was measured using blood chemistry analyzer. LDH was measured using colorimetric method.
After blood samples collection, each rat was euthanized. The brain was excised. A small piece of the cortex in ischemic core was obtained, weighed and then homogenized at 0° C. The ATP content was evaluated using ATP content measurement using luciferase-luciferin luminescence detection assay.
Each brain was immediately cut into 6 coronal sections (1 mm in thickness) and stained with 1% 2,3,5-triphenyltetrazolium chloride (TTC) in PBS solution at 37° C. for 10 minutes. The infarct size was identified as the non-TTC-stained area, the infarction percentage (%) was calculated by the ratio of area of infarction size to area of whole brain.

Compound	Serum lactate at 1 hour after phenformin intoxication [1]	Serum lactate [2]	Serum lactate content [3]	Mortality at 24 hours after ROSC [2]	Serum pH value at 1 hour after phenformin intoxication [1]
N#Cc1cc(NC(=O)C(=O)O)c(Cl)c(NC(=O)C(=O)O)c1.NC(CO)(CO)CO.NC(CO)(CO)CO [Lodoxamide tromethamine]	reduce lactate production				
Cc1ncc(COP(=O)(O)O)c(C=O)c1O [PLP, pyridoxal 5′-phosphate]	reduce lactate production	reduce lactate production	reduce lactate production		
N[C@@H](CCC(=O)[O-])C(=O)[O-].[Na+].[Na+] [Sodium glutamate]	reduce lactate production	reduce lactate production	reduce lactate production	1 out of 8	particularly effective
NC(=O)C(=O)[O-].[Na+] [Sodium oxamate]	reduce lactate production	reduce lactate production	reduce lactate production	1 out of 8	
O=C([O-])CC(=O)C(=O)O.[Na+] [oxaloacetate, Sodium oxaloacetate]	reduce lactate production	reduce lactate production	reduce lactate production		
N[C@@H](CC(=O)[O-])C(=O)[O-].[Na+].[Na+] [sodium aspartate, Sodium Aspartate]	reduce lactate production	reduce lactate production	reduce lactate production		particularly effective
